Laboratory results from patent US7867496B2, “Use of TGF-β antagonists to limit nephrotoxicity of immunosuppressive agents” (Genzyme Corporation, priority 2004, dated 2011).
Entries after “also recorded” stand apart in the source; their conditions may differ.

How the values were obtained:
TGF-β = settings: cited from earlier work
renal transplant = renal transplant histology, TAC study; type: in vivo, rat; settings: TAC alone compared to isografts; monohydrate
Source text: A portion of transplanted kidneys from each animal was fixed with formalin and imbedded in paraffin. Hematoxylin and eosin (H&E) and periodic acid schiff (PAS) stainings were used to assess histological changes. Renal histological changes we quantified by standard procedures. The severity of the glomerular injury was scored as described in Khanna et al. (2000) Transplantation, 73:1543-1549. Briefly, in each field, at least 50-60 glomeruli were counted for each specimen and lesions were scored on a five-point scale (0, no proliferation, almost normal histology; 1, about 25% segmental lesion; 2, segmental lesion of greater than 25% but less than 50%; 3, fibrotic lesions with diffuse proliferation; 4, almost completely fibrotic changes). PAS staining was used to determine the extent of extracellular matrix protein accumulation (not scored). Interlobular arteries in H&E-stained slides and lesions were scored.
The slides were mounted with Permount™ for evaluation. Samples from each group were graded for histopathological changes and immunohistochemical staining. The intensity of immunostaining was graded from 0 (no staining) to 4+ (maximum staining). […]
The effect of TAC, TAC+a control antibody and TAC+anti-TGF-β antibody treatment on morphological changes was assessed by histopathological examination in H&E- and PAS-stained thin kidney sections were evaluated.

NOX-1 mRNA = experiment: intrarenal NOX-1 mRNA by real-time PCR, TAC study; type: in vivo, rat; settings: TAC alone, 90 days, with respect to isograft controls
Method: (§1) TAC was administered at 0.25 mg/kg i.m. for 90 days; and the anti-TGF-β antibody, 1D11, was administered at 1 mg/kg twice a week. The control antibody used was 13C4.
(§2) RT-PCR was performed using a Bio-Rad iCycler™ system (Bio-Rad, Hercules, Calif.). RNAs were isolated from renal tissues using a kit from Promega (Madison, […].) and reverse-transcribed into cDNAs by using a cDNA synthesis kit from Invitrogen (Carlsbad, Calif.). The specificity of primers was tested by running a regular PCR for 40 cycles at 95° C. for 20 seconds and 60° C. for 1 minute, followed by separating in ethidium bromide containing agarose gels. The real-time PCR was performed using a SYBR Supermix kit (Bio-RAD) (40 cycles at 95° C. for 20 s and 60° C. for 1 minute). The PCR efficiency was examined by serially diluting template cDNA. The melting curve data was collected to check the PCR specificity and proper negative controls were included in each assay. The mRNA level for each gene for each sample was normalized to β-actin mRNA and presented as 2-[(Ct/β-actin-Ct/gene of interest)] as described in Khanna et al. (2005) Nephron Exp. Nephrol., 101:119-126.
(§3) Intrarenal expression of TGF-β, NOX-1 and p22phox was analyzed by RT-PCR in renal tissues from (1) isografts, (2) TAC, (3) TAC+anti-TGF-β antibody, and (3) TAC+control antibody treated animals at 90 days post transplantation. […]

p22phox protein = experiment: intragraft p22phox protein by Western blot, TAC study; type: in vivo, rat; settings: TAC compared to untreated allografts and isograft controls; monohydrate
Method: (§4) Frozen tissues were homogenized in ice-cold PBS with 1% Triton X-100, 1 mM phenylmethysulfonyl fluoride, 35 ng/ml pepstatin A and 10 ng/ml leupeptin. After centrifugation, 50 μg: of protein was electrophoresed by SDS PAGE as described in Khanna et al. (2005) Nephron Exp. Nephrol., 101:119-126. Blots were probed with appropriate dilutions of a polyclonal anti-p22phox antibody (RS554, a gift from Marsh Lab, Bozeman, Mont.) or anti-NOX antibody (Santa Cruz Biotechnology, Santa Cruz, Calif.), incubated with a horseradish peroxidase-conjugated secondary antibody at a 1:5,000 dilution, and visualized by enhanced chemiluminescence.
(§5) Expression of p22^phox and NOX-1 proteins was analyzed in kidney tissues from isografts, untreated allografts, and animals treated with TAC. Protein lysates (10 μg) were electrophoresed, transferred to nitrocellulose paper and probed with anti-p22^phox and anti NOX-1 antibodies.

p22phox mRNA = experiment: intrarenal p22phox mRNA by real-time PCR, TAC study; type: in vivo, rat; settings: TAC alone, 90 days, with respect to isograft controls
Method: as §1, §2, §3

SOD mRNA = experiment: intrarenal SOD mRNA by real-time PCR, TAC study; type: in vivo, rat; settings: TAC alone compared to isograft controls
Method: as §1, §2
(§6) To further examine the effect of prolonged treatment with TAC on antioxidant genes, intrarenal mRNA expression of SOD and TRX was determined.

TGF-β mRNA = experiment: intrarenal TGF-β mRNA by real-time PCR, TAC study; type: in vivo, rat; settings: TAC alone, 90 days post transplantation, with respect to isograft controls
Method: as §1, §2, §3

TRX mRNA = experiment: intrarenal TRX mRNA by real-time PCR, TAC study; type: in vivo, rat; settings: TAC alone compared to isograft controls
Method: as §1, §2, §6

RAC-1 mRNA = experiment: intrarenal RAC-1 mRNA by real-time PCR, TAC study; type: in vivo, rat; settings: TAC alone, 90 days, with respect to isograft controls
Method: as §1, §2, §3

NOX-1 protein = experiment: intragraft NOX-1 protein by Western blot, TAC study; type: in vivo, rat; settings: TAC compared to untreated allografts and isograft controls; monohydrate
Method: as §4, §5

TGF-β protein = experiment: intrarenal TGF-β protein immunohistochemistry, TAC study; type: in vivo, rat; settings: TAC alone
Method: Plasma levels of TGF-β protein were measured as described in Khanna et al. (1999) Transplantation, 67:882-889. Intrarenal protein expression of TGF-β was examined immunohistochemically as essentially as described in Khanna et al. (2000) Transplantation, 73:1543-1549; Khanna et al. (2002) Kidney Intl., 62:2257-63; and Khanna et al. (1999) Transplantation, 67:614-619. Formalin-fixed paraffin-embedded tissues were sliced into fine sections, deparaffinized in xylene and rehydrated in graded ethanol to phosphate-buffered saline (PBS). After blocking endogenous peroxidase activity for 30 minutes with methanol/H2O2 (18:1 vol/vol), nonspecific binding was blocked for 1 hour with 1.5% avidin/biotin diluted in PBS supplemented with 10% normal horse serum and 3% BSA. Tissue sections were incubated overnight at 4° C. with specific primary antibodies (50 μg/ml) in above-mentioned PBS. Following extensive washing in PBS, slides were incubated at room temperature for 1 hour with diluted (1:1,000) biotin-labeled anti-mouse IgG horse anti-serum and washed again extensively in PBS and then in the ABC solution for 30 minutes. The slides were developed for 10 minutes in diaminobenzidine (DAB) and rinsed in water for 10 minutes. The slides were then counterstained with hematoxylin and dehydrated in graded ethanol and xylene.
The slides were mounted with Permount™ for evaluation. […]

Compound	Kd (TGF-β; approximately, binds TGF-β1 only, read-out: antigen affinity)	TGF-β isoform binding specificity (TGF-β; mammalian isoforms of TGF-β)	renal histological changes (H&E, PAS) (renal transplant)	increase in intrarenal NOX-1 mRNA expression (NOX-1 mRNA)	intragraft expression of p22phox protein (p22phox protein)	increase in intrarenal p22phox mRNA expression (p22phox mRNA)	decrease in intrarenal SOD mRNA expression (SOD mRNA)	increase in intrarenal TGF-β mRNA expression (TGF-β mRNA)	decrease in intrarenal TRX mRNA expression (TRX mRNA)	increase in intrarenal RAC-1 mRNA expression (RAC-1 mRNA)	intragraft expression of NOX-1 protein (NOX-1 protein)	intrarenal staining for TGF-β protein (TGF-β protein)
CAT192: fully human recombinant anti-TGF-β antibody generated by phage display; specifically binds TGF-β1 only	~8.4 pM	specifically binds TGF-β1 only	–	–	–	–	–	–	–	–	–	–
C=CC[C@@H]1/C=C(\C)C[C@H](C)C[C@H](OC)[C@H]2O[C@@](O)(C(=O)C(=O)N3CCCC[C@H]3C(=O)O[C@H](/C(C)=C/[C@@H]3CC[C@@H](O)[C@H](OC)C3)[C@H](C)[C@@H](O)CC1=O)[C@H](C)C[C@@H]2OC (relative stereo) [TAC, [3S-[3R*[E (1S*,3S*,4S*)], 4S*,5R*,8S*,9E, 12R*,14R*,15S*,16R*,18S*,19S*,26aR*]]-5,6,8,11,12,13,14,15,16,17,18,19,24,25,26,26a-hexadecahydro-5,19-dihydroxy-3-[2-(4-hydroxy-3-methoxycyclohexyl)-1-methylethenyl]-14,16-dimethoxy-4,10,12,18-tetramethyl-8-(2-propenyl)-15,19-epoxy-3H-pyrido[2,1-c][1,4]oxaazacyclotricosine-1,7,20,21 (4H,23H)-tetrone, monohydrate]	–	–	marked histological changes; also recorded: statistically significant (p<0.036) difference	18 fold	increased intragraft expression; also recorded: elevated	31 fold	27 fold	37 fold	80 fold	20 fold	increased intragraft expression; also recorded: elevated	increased staining for TGF-β protein
